Columns and labels:
[1] = target: T1, Human CB1 receptor (hCB1) (Homo sapiens, UniProt P21554); experiment: hCB1 receptor binding (3H-CP55,940 displacement); settings: hCB1 membranes, Ki=IC50/(1+[rad]/Kd)
T1 construct: purchased Receptor Biology
Protocol: hCB1 and hCB2 Receptor Binding
Human CB1 receptor from Receptor Biology (hCB1) or human CB2 receptor from BioSignal (hCB2) membranes are thawed at 37° C., passed 3 times through a 25-gauge blunt-end needle, diluted in the cannabinoid binding buffer (50 mM Tris, 2.5 mM EDTA, 5 mM MgCl2, and 0.5 mg/mL BSA fatty acid free, pH 7.4) and aliquots containing the appropriate amount of protein are distributed in 96-well plates. […] The total and non-specific binding are determined in the absence and presence of 0.2 μM of HU210 respectively. The plates are vortexed and incubated for 60 minutes at room temperature, filtered through Unifilters GF/B (presoaked in 0.1% polyethyleneimine) with the Tomtec or Packard harvester using 3 mL of wash buffer (50 mM Tris, 5 mM MgCl2, 0.5 mg BSA pH 7.0). The filters are dried for 1 hour at 55° C. The radioactivity (cpm) is counted in a TopCount (Packard) after adding 65 μl/well of MS-20 scintillation liquid.
Based on the above assays, the dissociation constant (Ki) for a particular compound of the invention towards a particular receptor is determined using the following equation:
[rad] is a standard or reference radioactive ligand concentration at that moment; and
Kd is the dissociation constant of the radioactive ligand towards the particular receptor.

[2] = target: T1, Human CB1 receptor (hCB1); experiment: hCB1 GTPγS binding; type: biochemical; settings: for EC50: hCB1 membranes, GTPγ35S, 10-point dose-response; for Emax: maximal stimulated binding determined with 10 μM Win 55,212-2
Protocol: hCB1 and hCB2 GTPγS Binding
Human CB1 receptor from Receptor Biology (hCB1) or human CB2 receptor membranes (BioSignal) are thawed at 37° C., passed 3 times through a 25-gauge blunt-end needle and diluted in the GTPγS binding buffer (50 mM Hepes, 20 mM NaOH, 100 mM NaCl, 1 mM EDTA, 5 mM MgCl2, pH 7.4, 0.1% BSA). […] The basal and maximal stimulated binding is determined in absence and presence of 1 μM (hCB2) or 10 μM (hCB1) Win 55, 212-2 respectively. The membranes are pre-incubated for 5 minutes with 56.25 μM (hCB2) or 112.5 μM (hCB1) GDP prior to distribution in plates (15 μM (hCB2) or 30 μM (hCB1) GDP final). The plates are vortexed and incubated for 60 minutes at room temperature, filtered on Unifilters GF/B (presoaked in water) with the Tomtec or Packard harvester using 3 ml of wash buffer (50 mM Tris, 5 mM MgCl2, 50 mM NaCl, pH 7.0). The filters are dried for 1 hour at 55° C. The radioactivity (cpm) is counted in a TopCount (Packard) after adding 65 μl/well of MS-20 scintillation liquid. Antagonist reversal studies are done in the same way except that (a) an agonist dose-response curve is done in the presence of a constant concentration of antagonist, or (b) an antagonist dose-response curve is done in the presence of a constant concentration of agonist.

T1 sequence (P21554 whole entry): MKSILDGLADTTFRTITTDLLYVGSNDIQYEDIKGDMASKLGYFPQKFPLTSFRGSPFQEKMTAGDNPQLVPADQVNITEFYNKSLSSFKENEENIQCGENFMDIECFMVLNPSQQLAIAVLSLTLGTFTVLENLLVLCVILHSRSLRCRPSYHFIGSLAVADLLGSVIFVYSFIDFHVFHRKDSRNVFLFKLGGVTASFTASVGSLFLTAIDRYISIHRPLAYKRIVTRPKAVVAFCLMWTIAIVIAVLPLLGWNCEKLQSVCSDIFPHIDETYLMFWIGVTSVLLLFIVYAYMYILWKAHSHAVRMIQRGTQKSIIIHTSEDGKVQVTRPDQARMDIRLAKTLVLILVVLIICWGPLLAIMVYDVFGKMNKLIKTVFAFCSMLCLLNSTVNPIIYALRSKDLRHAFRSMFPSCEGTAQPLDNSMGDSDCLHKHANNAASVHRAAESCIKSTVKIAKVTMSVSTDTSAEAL

`CCS(=O)(=O)n1c2c(c3cc(C(=O)N4CCC(C)CC4)ccc31)CC(C1CCCCC1)CC2` (stereo not drawn) [(6-cyclohexyl-9-ethylsulfonyl-5,6,7,8-tetrahydrocarbazol-3-yl)-(4-methyl-1-piperidyl)methanone] was tested, and the Ki [1] was 15.2 nM, the EC50 [2] was 20 nM and the Emax [2] was 107%.

With `CC1CCN(C(=O)c2ccc3c(c2)c2c(n3C)CCC(C3CCCCC3)C2)CC1` (stereo not drawn) [(6-cyclohexyl-9-methyl-5,6,7,8-tetrahydrocarbazol-3-yl)-(4-methyl-1-piperidyl)methanone] the Ki [1] was 29.5 nM, the EC50 [2] was 65.1 nM and the Emax [2] was 106%.

`CC1CCN(C(=O)c2ccc3c(c2)c2c(n3S(C)(=O)=O)CCC(C3CCCCC3)C2)CC1` (stereo not drawn) [(6-cyclohexyl-9-methylsulfonyl-5,6,7,8-tetrahydrocarbazol-3-yl)-(4-methyl-1-piperidyl)methanone] was tested, and the Ki [1] was 75.3 nM, the EC50 [2] was 277 nM and the Emax [2] was 89%.

Work on `CN(CCCC(=O)NCCO)C(=O)c1ccc2c(c1)c1c(n2C)CC[C@@H](C2CCOCC2)C1` [(R)—N-(4-(2-Hydroxyethylamino)-4-oxobutyl)-N,9-dimethyl-3-(tetrahydro-2H-pyran-4-yl)-2,3,4,9-tetrahydro-1H-carbazole-6-carboxamide] yielded a Ki [1] of 69 nM, an EC50 [2] of 173 nM and an Emax [2] of 120%.

Molecule `CN(C(=O)c1ccc2c(c1)c1c(n2C)CC[C@@H](C2CCOCC2)C1)[C@H](CO)CCC(=O)NCCF` [(R)—N-((S)-5-(2-Fluoroethylamino)-1-hydroxy-5-oxopentan-2-yl)-N,9-dimethyl-3-(tetrahydro-2H-pyran-4-yl)-2,3,4,9-tetrahydro-1H-carbazole-6-carboxamide] has a Ki [1] of 26 nM, an EC50 [2] of 61 nM and an Emax [2] of 118%.

Work on `CCNC(=O)CC[C@@H](CO)N(C)C(=O)c1ccc2c(c1)c1c(n2C)CC[C@@H](C2CCOCC2)C1` [(R)—N-((S)-5-(Ethylamino)-1-hydroxy-5-oxopentan-2-yl)-N,9-dimethyl-3-(tetrahydro-2H-pyran-4-yl)-2,3,4,9-tetrahydro-1H-carbazole-6-carboxamide] yielded a Ki [1] of 36 nM, an EC50 [2] of 79 nM and an Emax [2] of 126%.

For `CCN(CC(=O)NCC(F)F)C(=O)c1ccc2c(c1)c1c(n2C)CCC(C2CCOCC2)C1` (stereo not drawn) [N-(2,2-difluoroethylcarbamoylmethyl)-N-ethyl-9-methyl-6-(oxan-4-yl)-5,6,7,8-tetrahydrocarbazole-3-carboxamide], the Ki [1] was 17.1 nM, the EC50 [2] was 39.9 nM and the Emax [2] was 116%.

`CCN(CC(=O)NCCC#N)C(=O)c1ccc2c(c1)c1c(n2S(=O)(=O)CC)CCC(C2CCOCC2)C1` (stereo not drawn) [N-(2-cyanoethylcarbamoylmethyl)-N-ethyl-9-ethylsulfonyl-6-(oxan-4-yl)-5,6,7,8-tetrahydrocarbazole-3-carboxamide] showed a Ki [1] of 115 nM, an EC50 [2] of 120 nM and an Emax [2] of 115%.

`Cn1c2c(c3cc(C(=O)N4CCC(C(=O)NCCF)C4)ccc31)CC(C1CCOCC1)CC2` (stereo not drawn) [N-(2-fluoroethyl)-1-[9-methyl-6-(oxan-4-yl)5,6,7,8-tetrahydrocarbazole-3-carbonyl]pyrrolidine-3-carboxamide] gave a Ki [1] of 126 nM, an EC50 [2] of 263 nM and an Emax [2] of 121%.

In the case of `CN(CC(=O)NCCF)C(=O)c1ccc2c(c1)c1c(n2C)CCC(C2CCOCC2)C1` (stereo not drawn) [N-(2-fluoroethylcarbamoylmethyl)-N,9-dimethyl-6-(oxan-4-yl)-5,6,7,8-tetrahydrocarbazole-3-carboxamide], the Ki [1] is reported as 291 nM, the EC50 [2] is reported as 721 nM and the Emax [2] is reported as 110%.

Work on `CCN(CC(=O)NC1CC1)C(=O)c1ccc2c(c1)c1c(n2CC2CC2)CCC(C2CCOCC2)C1` (stereo not drawn) [N-(cyclopropylcarbamoylmethyl)-9-(cyclopropylmethyl)-N-ethyl-6-(oxan-4-yl)-5,6,7,8-tetrahydrocarbazole-3-carboxamide] yielded a Ki [1] of 21.2 nM, an EC50 [2] of 34.2 nM and an Emax [2] of 91%.

`CCS(=O)(=O)n1c2c(c3cc(C(=O)N(C)CC(=O)NC4CC4)ccc31)CC(C1CCOCC1)CC2` (stereo not drawn) [N-(cyclopropylcarbamoylmethyl)-9-ethylsulfonyl-N-methyl-6-(oxan-4-yl)-5,6,7,8-tetrahydrocarbazole-3-carboxamide] showed a Ki [1] of 18.1 nM, an EC50 [2] of 18.8 nM and an Emax [2] of 116%.

Work on `Cn1c2c(c3cc(C(=O)N4CCCC(NC(=O)C5CC5)C4)ccc31)CC(C1CCOCC1)CC2` (stereo not drawn) [N-[1-[9-methyl-6-(oxan-4-yl)5,6,7,8-tetrahydrocarbazole-3-carbonyl]-3-piperidyl]cyclopropanecarboxamide] yielded a Ki [1] of 26.7 nM, an EC50 [2] of 40.6 nM and an Emax [2] of 115%.

For `CCC(=O)NC1CCCN(C(=O)c2ccc3c(c2)c2c(n3C)CCC(C3CCOCC3)C2)C1` (stereo not drawn) [N-[1-[9-methyl-6-(oxan-4-yl)5,6,7,8-tetrahydrocarbazole-3-carbonyl]-3-piperidyl]propanamide], the Ki [1] was 63.2 nM, the EC50 [2] was 263 nM and the Emax [2] was 122%.

With `Cn1c2c(c3cc(C(=O)N4CCC(NC(=O)C5CC5)CC4)ccc31)CC(C1CCOCC1)CC2` (stereo not drawn) [N-[1-[9-methyl-6-(oxan-4-yl)5,6,7,8-tetrahydrocarbazole-3-carbonyl]-4-piperidyl]cyclopropanecarboxamide] the Ki [1] was over 3480 nM, the EC50 [2] was over 30000 nM and the Emax [2] was over 30%.

`CN(CCN(C)C(=O)c1ccc2c(c1)c1c(n2C)CCC(C2CCOCC2)C1)C(=O)NC1CC1` (stereo not drawn) [N-[2-(cyclopropylcarbamoyl-methyl-amino)ethyl]-N,9-dimethyl-6-(oxan-4-yl)-5,6,7,8-tetrahydrocarbazole-3-carboxamide] showed a Ki [1] of 77.5 nM, an EC50 [2] of 468 nM and an Emax [2] of 110%.

In the case of `CN(CCN(C)C(=S)NC1CC1)C(=O)c1ccc2c(c1)c1c(n2C)CCC(C2CCOCC2)C1` (stereo not drawn) [N-[2-(cyclopropylthiocarbamoyl-methyl-amino)ethyl]-N,9-dimethyl-6-(oxan-4-yl)-5,6,7,8-tetrahydrocarbazole-3-carboxamide], the Ki [1] is reported as 9.9 nM, the EC50 [2] is reported as 161 nM and the Emax [2] is reported as 106%.

Molecule `CCn1c2c(c3cc(C(=O)N(C)CCCC(=O)NCC(F)F)ccc31)CC(C1CCOCC1)CC2` (stereo not drawn) [N-[3-(2,2-difluoroethylcarbamoyl)propyl]-9-ethyl-N-methyl-6-(oxan-4-yl)-5,6,7,8-tetrahydrocarbazole-3-carboxamide] has a Ki [1] of 45.2 nM, an EC50 [2] of 98.3 nM and an Emax [2] of 114%.

Molecule `CN(CCCC(=O)NCCO)C(=O)c1ccc2c(c1)c1c(n2C)CCC(C2CCOCC2)C1` (stereo not drawn) [N-[3-(2-hydroxyethylcarbamoyl)propyl]-N,9-dimethyl-6-(oxan-4-yl)-5,6,7,8-tetrahydrocarbazole-3-carboxamide] has a Ki [1] of 90.9 nM, an EC50 [2] of 155 nM and an Emax [2] of 122%.

Work on `CN(CCCC(=O)NC1CC1)C(=O)c1ccc2c(c1)c1c(n2C)CCC(C2CCOCC2)C1` (stereo not drawn) [N-[3-(cyclopropylcarbamoyl)propyl]-N,9-dimethyl-6-(oxan-4-yl)-5,6,7,8-tetrahydrocarbazole-3-carboxamide] yielded a Ki [1] of 7.1 nM, an EC50 [2] of 16.2 nM and an Emax [2] of 113%.

`CCN(CCCC(=O)NC1CC1)C(=O)c1ccc2c(c1)c1c(n2C)CCC(C2CCOCC2)C1` (stereo not drawn) [N-[3-(cyclopropylcarbamoyl)propyl]-N-ethyl-9-methyl-6-(oxan-4-yl)-5,6,7,8-tetrahydrocarbazole-3-carboxamide] gave a Ki [1] of 2.8 nM, an EC50 [2] of 4.9 nM and an Emax [2] of 116%.

Molecule `CCNC(=O)CCCN(C)C(=O)c1ccc2c(c1)c1c(n2CCF)CCC(C2CCOCC2)C1` (stereo not drawn) [N-[3-(ethylcarbamoyl)propyl]-9-(2-fluoroethyl)-N-methyl-6-(oxan-4-yl)-5,6,7,8-tetrahydrocarbazole-3-carboxamide] has a Ki [1] of 237 nM, an EC50 [2] of 372 nM and an Emax [2] of 109%.
